From patent publication US20260265267A1, “NOVEL COMPOUNDS WITH MTORC2-INHIBITORY ACTIVITY AND USES THEREOF” (Aliad Biopharma, priority 2023, published 2026)
One block for each compound: values may come before it.

Key:
mTORC2 [1] = assay: mTORC2 inhibitory activity in primary cultured cerebral neurons (Akt Ser473 phosphorylation); type: cell-based, SD mice; details: for effect on Akt Ser473 phosphorylation / decrease in AKT Ser473 phosphorylation at 24 hours: 500 nM or 100 nM; for effect on Akt Ser473 phosphorylation / pSer473-AKT/AKT (% control): 24 hours
Description: Specifically, primary neural cells were cultured from the cerebral cortex of E16 embryos of SD mice with a gestational age 16-day (Orient Bio). The extracted brain was separated into the left and right hemispheres, the meninges were removed, and the brains were treated with trypsin in Ca^2+/Mg^2+-free HBSS solution.
The time-dependent changes in Akt Ser473 phosphorylation, Akt Thr308 phosphorylation, and LC3-II levels were measured by Western blot analysis.

[2] = system: amyloid plaques in the brain of 5×FAD mouse; assay: Amyloid plaque removal in the brain of 5×FAD mice (6E10 antibody, thioflavin-S staining); type: in vivo; details: 5 mg/kg, 14 days
Description: (§1) In order to evaluate the efficacy of HN2210, HN2213, and HN2313 on Alzheimer's disease-related symptoms, specifically regarding 1) memory and cognitive impairment, 2) amyloid plaques, 3) neurofibrillary tangles (NFTs), and 4) brain inflammation, an in vivo efficacy assessment of HN2210, HN2213 and HN2313 was conducted using 5×FAD Alzheimer's disease model mice. The 5×FAD mice were purchased from Jackson Lab, USA (Cat #034840-JAX) and crossed once with C57bl6 mice to produce F1 heterozygous offspring (Het). The compound was administered via intraperitoneal injection to 6-month-old 5×FAD Het mice, followed by behavioral testing. The normal control mice, which were littermates of the 5×FAD Het mice, were aged to 6 months and received DMSO injection at the same volume.
In order to assess the amyloid plaque removal effect of HN2210, HN2213, and HN2313 compounds in the brains of Alzheimer's disease model mice, the following test was conducted using 5×FAD-DMSO mice without compound treatment, 5×FAD mice treated with HN2210, HN2213, or HN2313 compounds, and normal mice as controls.
Specifically, brain slices sectioned in the coronal plane were selected for every fifth slice from the anterior to the posterior parts of the brain and stained with the 6E10 antibody or thioflavin-S. The 6E10 antibody stains both […] and amyloid plaques, while thioflavin-S specifically stains amyloid plaques. DNA was co-stained with DAPI. The dentate gyrus (DG) region of the hippocampus, where amyloid plaques tend to accumulate heavily, was examined using a confocal scanning microscope, and the images are shown in FIGS. 9a to 9c.

mTORC2 [3] = target: T1, mTORC2 (Homo sapiens, UniProt P42345); assay: mTORC2 inhibitory activity in HeLa cells (Akt Ser473 phosphorylation, Western blot); type: cell-based; details: for selective inhibition of mTORC2: 40 μM, versus mTORC1; for selective inhibition of mTORC2 / remaining activity at 40 µM: 9 hours; for remaining activity at 40 µM: read-out: pSer473-AKT/AKT (% control)
T1 construct: the following experiments were conducted in HeLa cells; endogenous in cells; host or cells: HeLa
Summary of the method: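 HeLa cells treated with compounds at 40 μM for 9 hours, then lysed and analysed by Western blot with chemiluminescent detection. Phospho-Akt Ser473 signal normalised to total Akt and expressed as percent of DMSO vehicle control.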

LC3-II = LC3-II formation as indicator of autophagy in HeLa cells (Western blot); type: cell-based, human; details: 9 hours; for activity at 40 µM: Homo sapiens, read-out: LC3-II (% control)
Summary of the method: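 HeLa cells were treated with compounds at 40 μM for 9 h, then lysed in RIPA buffer and analysed by Western blot with chemiluminescent detection. LC3-II signal normalized to pan-Akt and expressed as percent of the DMSO vehicle control.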

[4] = system: 5×FAD Alzheimer's disease model mice; assay: Morris water maze test in 5×FAD mice (spatial perceptive ability); type: in vivo; details: for Morris water maze time spent swimming in the target quadrant, % of the normal control level / Morris water maze time spent swimming in the target quadrant, increase compared to 5×FAD-DMSO mice: 14 days (FIG. 8c); for Morris water maze time spent in the target quadrant, % of the normal control level / Morris water maze time spent in the target quadrant, increase compared to 5×FAD-DMSO mice: 14 days (FIG. 6b)
Description: as §1
Specifically, a 50 cm deep water tank filled with water (25.0±1.0° C.) was divided into four equal quadrants, and a platform (12 cm diameter) was placed 3 mm below the water surface in the center of one quadrant. The training test consisted of a 1-minute free swimming practice without the platform foothold on the first day and a four days of training, during which the animal used environmental cues to locate the hidden platform foothold, with four trials per day. The following day, the platform was removed, and the time the experimental animal spent in the target quadrant was measured (probe trial). Videos were recorded and analyzed using the Ethovision video tracking system (Noldus Information Technology, Wageningen, Netherlands). The data included the time spent swimming in the target quadrant and the number of crossings over the virtual platform's previous position.

selective inhibition of mTORC2 (mTORC2 [3]): selectively inhibit mTORC2 | remaining activity at 40 µM (mTORC2 [3]): 43%
SMILES: O=C1c2cc(F)c(N3CCOCC3)cc2COc2cc3c(cc21)OCO3 [HN2210, 8-(morpholino)-9-fluoro[2]benzoxepino[3,4-f]-1,3-benzodioxol-11(6H)-one]
effect on Akt Ser473 phosphorylation (mTORC2 [1]): reduce Akt Ser473 phosphorylation | decrease in AKT Ser473 phosphorylation at 24 hours (mTORC2 [1]): 67% | pSer473-AKT/AKT (% control) (mTORC2 [1]; 500 nM): 33 % control | decrease in AKT Ser473 phosphorylation from 30 minutes to 6 hours (mTORC2 [1]; from 30 minutes to 6 hours): approximately 50% | reduction of 6E10 signals in the dentate gyrus compared to the 5×FAD-DMSO group [2]: 53% | reduction of thioflavin-S signals in the dentate gyrus compared to the 5×FAD-DMSO group [2]: 38% | increase in LC3-II (LC3-II; 40 μM): 22% | activity at 40 µM (LC3-II): 108% | Morris water maze number of target crossings, % of the normal control level ([4]; 0.2 mg/kg, 14 days (FIG. 8b)): approximately 30% | Morris water maze number of target crossings, increase compared to 5×FAD-DMSO mice ([4]; 0.2 mg/kg, 14 days (FIG. 8b)): 2.02 fold | Morris water maze time spent swimming in the target quadrant, % of the normal control level ([4]; 0.2 mg/kg): approximately 87% | Morris water maze time spent swimming in the target quadrant, increase compared to 5×FAD-DMSO mice ([4]; 0.2 mg/kg): 2.14 fold | Morris water maze number of target crossings, % of the normal control level ([4]; 1 mg/kg, 14 days (FIG. 8b)): ~63% | Morris water maze number of target crossings, increase compared to 5×FAD-DMSO mice ([4]; 1 mg/kg, 14 days (FIG. 8b)): 4.27 fold | Morris water maze time spent swimming in the target quadrant, % of the normal control level ([4]; 1 mg/kg): ~85% | Morris water maze time spent swimming in the target quadrant, increase compared to 5×FAD-DMSO mice ([4]; 1 mg/kg): 2.07 fold | Morris water maze number of target crossings, % of the normal control level ([4]; 5 mg/kg, 14 days (FIG. 6a)): approximately 59% | Morris water maze number of target crossings, increase compared to 5×FAD-DMSO mice ([4]; 5 mg/kg, 14 days (FIG. 6a)): 3.96 fold | Morris water maze time spent in the target quadrant, % of the normal control level ([4]; 5 mg/kg): approximately 96% | Morris water maze time spent in the target quadrant, increase compared to 5×FAD-DMSO mice ([4]; 5 mg/kg): 1.74 fold | Morris water maze number of target crossings, % of the normal control level ([4]; 5 mg/kg, 14 days (FIG. 8b)): ~86% | Morris water maze number of target crossings, increase compared to 5×FAD-DMSO mice ([4]; 5 mg/kg, 14 days (FIG. 8b)): 5.84 fold | Morris water maze time spent swimming in the target quadrant, % of the normal control level ([4]; 5 mg/kg): ~96% | Morris water maze time spent swimming in the target quadrant, increase compared to 5×FAD-DMSO mice ([4]; 5 mg/kg): 2.34 fold

remaining activity at 40 µM (mTORC2 [3]): 80% | inhibition at 40 µM (mTORC2 [3]; HeLa, 9 h, read-out: reduction in Akt Ser473 phosphorylation compared to the control group): > 20%
SMILES: O=C1c2cc(F)c(NC3CCCC3)cc2COc2cc3c(cc21)OCO3 [HN2313, 8-(cyclopentylamino)-9-fluoro-[1,3]dioxolo[4′,5′:4,5]benzo[1,2-b]benzo[e]oxepin-11(6H)-one]
selectivity for mTORC2 over mTORC1 (mTORC2 [1]): selective mTORC2 inhibitors | pSer473-AKT/AKT (% control) (mTORC2 [1]; 100 nM): 34 % control | effect on Akt Ser473 phosphorylation (mTORC2 [1]): reduce Akt Ser473 phosphorylation | decrease in AKT Ser473 phosphorylation at 24 hours (mTORC2 [1]): 66% | AKT Ser473 phosphorylation from 1 to 12 hours (mTORC2 [1]; from 1 to 12 hours): increased AKT Ser473 phosphorylation significantly | reduction of 6E10 signals in the dentate gyrus compared to the 5×FAD-DMSO group [2]: 38% | reduction of thioflavin-S signals in the dentate gyrus compared to the 5×FAD-DMSO group [2]: 35% | increase in LC3-II (LC3-II; 40 μM): 62% | activity at 40 µM (LC3-II): 162% | Morris water maze number of target crossings, % of the normal control level ([4]; 5 mg/kg, 14 days (FIG. 6a)): ~82% | Morris water maze number of target crossings, increase compared to 5×FAD-DMSO mice ([4]; 5 mg/kg, 14 days (FIG. 6a)): 5.5 fold | Morris water maze time spent in the target quadrant, % of the normal control level ([4]; 5 mg/kg): ~84% | Morris water maze time spent in the target quadrant, increase compared to 5×FAD-DMSO mice ([4]; 5 mg/kg): 1.53 fold

selective inhibition of mTORC2 (mTORC2 [3]): selectively inhibit mTORC2 | remaining activity at 40 µM (mTORC2 [3]): 51%
SMILES: O=C1c2cc(F)c(NCc3ccccc3)cc2COc2cc3c(cc21)OCO3 [HN2213, 8-(benzylamino)-9-fluoro[2]benzoxepino[3,4-f]-1,3-benzodioxol-11(6H)-one]
selectivity for mTORC2 over mTORC1 (mTORC2 [1]): selective mTORC2 inhibitors | effect on Akt Ser473 phosphorylation (mTORC2 [1]): reduce Akt Ser473 phosphorylation | decrease in AKT Ser473 phosphorylation at 24 hours (mTORC2 [1]): 62% | pSer473-AKT/AKT (% control) (mTORC2 [1]; 500 nM): 38 % control | reduction of 6E10 signals in the dentate gyrus compared to the 5×FAD-DMSO group [2]: 29% | reduction of thioflavin-S signals in the dentate gyrus compared to the 5×FAD-DMSO group [2]: 28% | decrease in LC3-II (LC3-II; 40 μM): 33% | activity at 40 µM (LC3-II): 67% | Morris water maze number of target crossings, % of the normal control level ([4]; 5 mg/kg, 14 days (FIG. 6a)): ~60% | Morris water maze number of target crossings, increase compared to 5×FAD-DMSO mice ([4]; 5 mg/kg, 14 days (FIG. 6a)): 4 fold | Morris water maze time spent in the target quadrant, % of the normal control level ([4]; 5 mg/kg): ~105% | Morris water maze time spent in the target quadrant, increase compared to 5×FAD-DMSO mice ([4]; 5 mg/kg): 1.91 fold
